Data as given in the Kinase Knowledgebase extract (Sharma et al. 2016).

Molecular target: MAPK14 (UniProt Q16539)
Assay: p38 Kinase Inhibition Assay

Sequence of MAPK14 (Q16539 whole entry, looked up): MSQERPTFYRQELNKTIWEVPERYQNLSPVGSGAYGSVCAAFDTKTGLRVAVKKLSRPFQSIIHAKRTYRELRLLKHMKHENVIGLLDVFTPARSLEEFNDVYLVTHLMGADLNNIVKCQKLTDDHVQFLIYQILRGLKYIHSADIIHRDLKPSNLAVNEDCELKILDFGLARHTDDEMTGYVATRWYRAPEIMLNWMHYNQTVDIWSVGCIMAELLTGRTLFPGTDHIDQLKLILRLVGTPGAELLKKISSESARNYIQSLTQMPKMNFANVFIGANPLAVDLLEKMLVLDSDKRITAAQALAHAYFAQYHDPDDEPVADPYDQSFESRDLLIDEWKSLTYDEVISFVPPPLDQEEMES

| IC50 | SMILES |
| --- | --- |
| 200 to 1500 nM | Cc1ccccc1C(=O)N1CCC(Cc2ccccc2)CC1 |
| 200 to 1500 nM | O=C(c1ccccc1)N1CCC(Cc2ccccc2)CC1 |
| 200 to 1500 nM | COc1cccc(OC)c1C(=O)N1CCC(Cc2ccccc2)CC1 |
| 200 to 1500 nM | O=CNc1ccc(C(=O)N2CCC(Cc3ccccc3)CC2)cc1 |
| 200 to 1500 nM | S=C(c1ccccc1)N1CCC(Cc2ccccc2)CC1 |
| 200 to 1500 nM | Nc1ccc(C(=O)N2CCC(Cc3ccccc3)CC2)cc1 |
| 200 to 1500 nM | CN(C)c1ccc(C(=O)N2CCC(Cc3ccccc3)CC2)c(Cl)c1 |
| 200 to 1500 nM | CNc1ccccc1C(=O)N1CCC(Cc2ccccc2)CC1 |
| 200 to 1500 nM | CN(C)c1ccccc1C(=O)N1CCC(Cc2ccccc2)CC1 |
| 200 to 1500 nM | CN(C)c1ccc(C(=O)N2CCC(Cc3ccccc3)CC2)cc1 |
| 200 to 1500 nM | O=C(c1ccccc1O)N1CCC(Cc2ccccc2)CC1 |
| 200 to 1500 nM | CN(C)c1cccc(C(=O)N2CCC(Cc3ccccc3)CC2)c1 |
| 200 to 1500 nM | COc1ccc(C(=O)N2CCC(Cc3ccccc3)CC2)c(OC)c1 |
| 200 to 1500 nM | O=C(c1ccccc1Cl)N1CCC(Cc2ccccc2)CC1 |
| 200 to 1500 nM | CNc1ccc(C(=O)N2CCC(Cc3ccccc3)CC2)c(Cl)c1 |
| 200 to 1500 nM | Nc1ccc(C(=O)N2CCC(Cc3ccccc3)CC2)c(Cl)c1 |
| 200 to 1500 nM | CC(=O)Nc1ccc(C(=O)N2CCC(Cc3ccccc3)CC2)cc1 |
| 200 to 1500 nM | O=C(c1ccccc1I)N1CCC(Cc2ccccc2)CC1 |
| 200 to 1500 nM | O=C(c1ccccc1Br)N1CCC(Cc2ccccc2)CC1 |
| 200 to 1500 nM | CC1(Cc2ccccc2)CCN(C(=O)c2ccccc2Br)CC1 |
